Test results published in patent US5028601A, “Cephalosporin compounds and antibacterial agents” (Meiji Saika Kaisha, Ltd., priority 1987, dated 1991).
Like-named read-outs stand apart in the source and are kept apart here.

Legend:
Type in all cases: cell-based
Parameters in all cases: unit not given here
[1] = test system: Staphylococcus aureus Smith (1); test: Minimum growth inhibitory concentration, Staphylococcus aureus Smith (1)
Proteus vulgaris GN-76 = test: Minimum growth inhibitory concentration, Proteus vulgaris GN-76
[2] = test system: Serratia marcescens No. 1; test: Minimum growth inhibitory concentration, Serratia marcescens No. 1
[3] = test system: Enterobacter cloacae GN-471; test: Minimum growth inhibitory concentration, Enterobacter cloacae GN-471
[4] = test system: Pseudomonase cepacia M-0527; test: Minimum growth inhibitory concentration, Pseudomonase cepacia M-0527
[5] = test system: Pseudomonas aeruginosa E-2; test: Minimum growth inhibitory concentration, Pseudomonas aeruginosa E-2
Escherichia coli No. 255 = test: Minimum growth inhibitory concentration, Escherichia coli No. 255
[6] = test system: Pseudomonas aeruginosa IAM-1007; test: Minimum growth inhibitory concentration, Pseudomonas aeruginosa IAM-1007
[7] = test system: Klebsiella pneumoniae GN-69; test: Minimum growth inhibitory concentration, Klebsiella pneumoniae GN-69
[8] = test system: Citrobacter freundii GN-346; test: Minimum growth inhibitory concentration, Citrobacter freundii GN-346
Proteus rettgeri GN-624 = test: Minimum growth inhibitory concentration, Proteus rettgeri GN-624
[9] = test system: Pseudomonas aeruginosa M-0148; test: Minimum growth inhibitory concentration, Pseudomonas aeruginosa M-0148
[10] = test system: Staphylococcus aureus 209P JC-1; test: Minimum growth inhibitory concentration, Staphylococcus aureus 209P JC-1
[11] = test system: Bacillus subtilis ATCC6633; test: Minimum growth inhibitory concentration, Bacillus subtilis ATCC6633
Escherichia coli No. 29 = test: Minimum growth inhibitory concentration, Escherichia coli No. 29
[12] = Staphylococcus aureus Smith (1)
[13] = Pseudomonas aeruginosa IAM-1007
[14] = Staphylococcus aureus 209P JC-1

Row | SMILES | Minimum Growth Inhibitory Concentration [1, 12] | Minimum Growth Inhibitory Concentration (Proteus vulgaris GN-76; Proteus vulgaris GN-76) | Minimum Growth Inhibitory Concentration ([2]; Serratia marcescens No. 1) | Minimum Growth Inhibitory Concentration ([3]; Enterobacter cloacae GN-471) | Minimum Growth Inhibitory Concentration [4] | Minimum Growth Inhibitory Concentration ([5]; Pseudomonas aeruginosa E-2) | Minimum Growth Inhibitory Concentration (Escherichia coli No. 255) | Minimum Growth Inhibitory Concentration [6, 13] | Minimum Growth Inhibitory Concentration ([7]; Klebsiella pneumoniae GN-69) | Minimum Growth Inhibitory Concentration ([8]; Citrobacter freundii GN-346) | Minimum Growth Inhibitory Concentration (Proteus rettgeri GN-624; Proteus rettgeri GN-624) | Minimum Growth Inhibitory Concentration ([9]; Pseudomonas aeruginosa M-0148) | Minimum Growth Inhibitory Concentration [10, 14] | Minimum Growth Inhibitory Concentration ([11]; Bacillus subtilis ATCC6633) | Minimum Growth Inhibitory Concentration (Escherichia coli No. 29) | also measured
1 | Nc1nc(/C(=N/OCc2cc(=O)c(O)cn2O)C(=O)N[C@@H]2C(=O)N3C(C(=O)[O-])=C(C[n+]4ccccc4)CS[C@H]23)cs1 [Example 14, (6R,7R)-7-[(Z)-2-(2-Aminothiazole-4-yl)-2-(1,5-dihydroxy-4-pyridone-2-yl)methoxyiminoacetamido]-3-pyridiniummethyl-ceph-3-em-4-carboxylate] | 6.25 | 0.20 | 0.10 | 3.13 | < 0.025 | 0.10 | 0.78 | 0.39 | 0.10 | 6.25 | 3.13 | 0.78 | 6.25 | 12.5 | 0.10 | 
2 | Nc1nc(/C(=N/OCc2cc(=O)c(O)c[nH]2)C(=O)N[C@@H]2C(=O)N3C(C(=O)[O-])=C(C[n+]4ccccc4)CS[C@H]23)cs1 [A, reference compound] | 3.13 | 0.20 | 0.20 | 3.13 | 0.39 | 3.13 | 1.56 | 3.13 | 0.20 | 25 | 12.5 | 25 | 3.13 | 1.56 | 0.20 | 
3 | C[n+]1ccc(SCC2=C(C(=O)[O-])N3C(=O)[C@@H](NC(=O)/C(=N\OCc4cc(=O)c(O)cn4O)c4csc(N)n4)[C@H]3SC2)cc1 [Example 1, (6R,7R)-7-[(Z)-2-(2-Aminothiazole-4-yl)-2-(1,5-dihydroxy-4-pyridone-2-yl)methoxyiminoacetamido]-3-(1-methylpyridinium-4-yl)thiomethyl-ceph-3em-4-carboxylate] | 3.13 | 0.05 | 0.05 | 1.56 | < 0.025 | 0.05 | 0.10 | 0.10 | < 0.025 | 12.5 | 0.10 | 0.20 | 3.13 | 12.5 | 0.05 | 
4 | C[n+]1ccc(SCC2=C(C(=O)[O-])N3C(=O)[C@@H](NC(=O)/C(=N\OCc4cc(=O)c(O)cn4O)c4csc(N)n4)[C@H]3SC2)c2c1CCC2 [Example 4] | 6.25 | < 0.025 | 0.10 | 0.78 | < 0.025 | 0.10 | 0.20 | 0.10 | 0.10 | 1.56 | 0.20 | 0.10 | 3.13 | 12.5 | < 0.025 | 
5 | CC(C)(O/N=C(\C(=O)N[C@@H]1C(=O)N2C(C(=O)[O-])=C(C[n+]3ccccc3)CS[C@H]12)c1csc(N)n1)C(=O)O [B, Ceftazidime, reference compound] |  |  |  |  | 0.78 |  |  |  |  |  |  |  |  |  | 0.20 | Minimum Growth Inhibitory Concentration [1]: 3.13; Minimum Growth Inhibitory Concentration (Proteus vulgaris GN-76): 0.05; Minimum Growth Inhibitory Concentration [2]: < 0.025; Minimum Growth Inhibitory Concentration [3]: 3.13; Minimum Growth Inhibitory Concentration [5]: 1.56; Minimum Growth Inhibitory Concentration [6]: 1.56; Minimum Growth Inhibitory Concentration [7]: 0.10; Minimum Growth Inhibitory Concentration [8]: 50; Minimum Growth Inhibitory Concentration (Proteus rettgeri GN-624): 0.39; Minimum Growth Inhibitory Concentration [9]: 3.13; Minimum Growth Inhibitory Concentration [10]: 3.13; Minimum Growth Inhibitory Concentration [11]: 6.25
6 | Cn1c(SCC2=C(C(=O)O)N3C(=O)[C@@H](NC(=O)/C(=N\OCc4cc(=O)c(O)cn4O)c4csc(N)n4)[C@H]3SC2)nnc(O)c1=O [Example 9, (6R,7R)-7-[(Z)-2-(2-Aminothiazole-4-yl)-2-(1,5-dihydroxy-4-pyridone-2-yl)methoxyiminoacetamido]-3-(4,5-dihydro-4-methyl 5-oxo-6-hydroxy-1,2,4-triazine-3-yl)thiomethyl-ceph-3-em-4-carboxylic acid] | 12.5 | < 0.025 | 0.05 | 3.13 | < 0.025 | 0.05 | 0.20 | 0.39 | < 0.025 | 3.13 | 0.20 | 0.39 | 6.25 | 12.5 | < 0.025 | 
7 | Nc1nc(/C(=N/OCc2cc(=O)c(O)cn2O)C(=O)N[C@@H]2C(=O)N3C(C(=O)[O-])=C(CSc4cc[n+](CCO)cc4)CS[C@H]23)cs1 [Example 3, (6R,7R)-7-[(Z)-2-(2 Aminothiazole-4-yl)-2-(1,5-dihydroxy-4-pyridone-2-yl)methoxyiminoacetamido]-3-[1-(2-hydroxyethyl)pyridinium-4-yl]thiomethyl-ceph-3-em-4-carboxylate] | 6.25 | 0.05 | 0.10 | 1.56 | < 0.025 | 0.05 | 0.20 | 0.10 | 0.05 | 6.25 | 0.10 | 0.20 | 3.13 | 12.5 | 0.05 | 
